The values that follow come from article PMC4445981, “The glutamate transport inhibitor DL-Threo-β-Benzyloxyaspartic acid (DL-TBOA) differentially affects SN38- and oxaliplatin-induced death of drug-resistant colorectal cancer cells” (BMC Cancer, 2015).

SMILES strings stand for the structures.

The test system of one assay is SLC1A3. The following applies: depending on the system and experimental setup; cited from earlier work.
For a further assay, the system named is SLC1A1. The settings on record: depending on the system and experimental setup; cited from earlier work.
The subject of assay [1] is retinoblastoma protein phosphorylation on Ser 807/811 (pRb). Briefly: pRb (Ser 807/811) level by Western blotting. In kind it is cell-based, human. Here is the method:
Cells were grown to a confluence of 60-80 % and treated with chemotherapy, siRNA- or plasmid transfection as indicated. Cells were washed once in PBS, lysed in lysis buffer (1 % SDS, 0.1 M Tris pH 7.5, and 1 mM Na3VO4), sonicated, and protein content determined (DC assay, BioRad). Lysates were mixed 2:1with NuPage LDS sample buffer (Invitrogen). SDS-PAGE was carried out in NOVEX chambers with NuPAGE 10 % Bis-Tris gels under reducing and denaturing conditions, using BenchMark protein ladder (Invitrogen), and 15 μg protein per lane. Proteins were transferred to PVDF membranes, which were Ponceau S stained, blocked for 1 h at 37 °C in 5 % nonfat dry milk in TBST (0.01 M Tris/HCl, 0.15 M NaCl, 0.1 % Tween 20, pH 7.4), incubated overnight at 4 °C with primary antibodies diluted in blocking buffer, washed in TBST, incubated with secondary antibodies for 1 h, washed in TBST, and developed using BCIP/NBT (KPL). Bands were scanned and quantified using UN-SCAN-IT (Silk Scientific).
Supplementary file 12885_2015_1405_MOESM5_ESM.tiff: Additional file 5: Figure S5. Effects of DL-TBOA on proliferation after chemotherapy treatment. Parental and drug-resistant HCT116 (A) and LoVo (B) cell lines seeded in 6-well dishes were exposed to SN38 (0.8 μM) or oxaliplatin (20 μM) alone or in combination with 350 μM DL-TBOA as indicated, for 24 h. Equal amounts of protein per lane were separated by SDS-PAGE and the protein levels of phosphorylation of retinoblastoma protein on Ser 807/811 (pRb) were determined by Western blotting. Top: Representative Western blots, with β-actin as loading control. Bottom: Densitometric quantifications based on 3 independent experiments per condition. Data are means with S.E.M. error bars of 3 independent experiments. Two-way ANOVA with Tukey post-test.

Regarding `N[C@H](C(=O)O)[C@H](OCc1ccccc1)C(=O)O` (racemic) [TBOA, DL-Threo-β-Benzyloxyaspartic acid], the “IC50 values in uptake assays” value in the assay with SLC1A3 and in the assay on SLC1A1 was “low micromolar range” in each case. For the same compound, in assay [1] (DL-TBOA, HCT116 and LoVo cells), the “effect on cellular level of phospho-Retinoblastoma protein” value was “did not significantly alter”. Further, the “effect on pRb level after oxaliplatin treatment” value in assay [1] (all cell types except oxaliplatin-resistant HCT116, 350 μM DL-TBOA + 20 μM oxaliplatin, 24 h, not statistically significant) is on record as “slightly but consistently decreased pRb levels”. Besides, in assay [1] (control conditions, both parental cell lines, 350 μM DL-TBOA, 24 h, not statistically significant), the “effect on pRb level” value is given as “tended to increase pRb levels”.
